In patent publication US20120010205A1, “NOVEL QUINOLINE ESTERS USEFUL FOR TREATING SKIN DISORDERS” (Wyeth LLC, priority 2010, published 2012):
Each block holds one molecule with its values, some of them ahead of it.

Legend:
human LXRβ = biological target: T1, human LXRβ (Homo sapiens, UniProt P55055); test: Ligand-binding test procedure for human LXRβ (3H T0901317 tracer, flash plates); conditions: read-out: hLXRb binding IC50
T1 construct: made in house; host or cells: E. coli
T1 sequence (P55055 1-460): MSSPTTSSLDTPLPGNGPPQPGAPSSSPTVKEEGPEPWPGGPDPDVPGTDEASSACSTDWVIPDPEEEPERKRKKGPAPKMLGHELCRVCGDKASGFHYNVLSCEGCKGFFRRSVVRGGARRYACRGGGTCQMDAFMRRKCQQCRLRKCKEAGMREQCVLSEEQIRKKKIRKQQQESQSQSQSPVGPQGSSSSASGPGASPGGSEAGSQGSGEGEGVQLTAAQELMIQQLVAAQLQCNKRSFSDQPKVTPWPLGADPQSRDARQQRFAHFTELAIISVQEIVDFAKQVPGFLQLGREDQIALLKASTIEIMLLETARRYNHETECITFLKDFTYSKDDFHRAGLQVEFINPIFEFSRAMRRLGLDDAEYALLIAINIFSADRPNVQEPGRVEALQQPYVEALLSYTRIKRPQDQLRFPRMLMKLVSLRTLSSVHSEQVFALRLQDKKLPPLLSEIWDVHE
Procedure: LIGAND-BINDING TEST PROCEDURE FOR HUMAN LXRβ.
Buffer: 100 mM KCl, 100 mM TRIS (pH 7.4 at +4° C.), 8.6% glycerol, 0.1 mM PMSF*, 2 mM MTG*, 0.2% CHAPS (* not used in wash buffer)
Receptor source: E. coli extracted from cells expressing biotinylated hLXRβ. Extract was made in a similar buffer as above, but with 50 mM TRIS.
Washed streptavidin and coated flash plates with wash buffer. Diluted receptor extract to give Bmax˜4000 cpm and add to the wells. Wrapped the plates in aluminum foil and stored them at +4° C. overnight.
Made a dilution series in DMSO of the test ligands. Made a 5 nM solution of the radioactive tracer in buffer. Mixed 250 μL diluted tracer with 5 μL of the test ligand from each concentration of the dilution series. Washed the receptor-coated flash plates. Added 200 μL per well of the ligand/radiolabel mixture to the receptor-coated flash plates. Wrapped the plates in aluminum foil and incubate at +4° C. over night.
Aspirated wells, and washed the flashed plates. Sealed the plate. Measured the remaining radioactivity in the plate.

hLXRa = biological target: T2, hLXRa (Homo sapiens, UniProt Q13133); test: hLXRa binding
T2 sequence (Q13133 1-447): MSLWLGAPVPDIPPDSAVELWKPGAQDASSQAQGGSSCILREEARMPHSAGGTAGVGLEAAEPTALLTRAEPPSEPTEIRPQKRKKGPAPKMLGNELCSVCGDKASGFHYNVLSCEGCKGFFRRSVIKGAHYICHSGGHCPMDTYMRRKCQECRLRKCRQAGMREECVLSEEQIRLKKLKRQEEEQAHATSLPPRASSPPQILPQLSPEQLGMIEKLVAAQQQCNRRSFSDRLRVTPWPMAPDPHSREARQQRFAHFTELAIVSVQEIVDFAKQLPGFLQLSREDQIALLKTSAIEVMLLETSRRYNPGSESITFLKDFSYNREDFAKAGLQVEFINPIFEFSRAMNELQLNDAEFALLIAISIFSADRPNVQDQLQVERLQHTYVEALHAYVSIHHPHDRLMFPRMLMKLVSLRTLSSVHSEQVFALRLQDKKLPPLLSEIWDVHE

ABCG1 [1] = test: Gene regulation by LXR: ABCG1, human foreskin fibroblasts (serum-free); type: cell-based
ABCG1 [2] = test: Gene regulation by LXR: ABCG1, KERTr (serum-free); type: cell-based

Compound: CC(C)c1cnc2c(Cl)cccc2c1-c1cccc(OC(=O)c2ccc(S(C)(=O)=O)cc2)c1 [Example 3, 3-(8-chloro-3-isopropylquinolin-4-yl)phenyl 4-(methylsulfonyl)benzoate]
IC50 (human LXRβ): 17 nM | IC50 (hLXRa): 57 nM | EC50 (ABCG1 [1]; Fibroblast): 45 nM | EC50 (ABCG1 [2]): 1.18 nM

Compound: Cc1ccc(S(=O)(=O)N(C)C)cc1C(=O)Oc1cccc(-c2c(C(C)C)cnc3c(C(F)(F)F)cccc23)c1 [Example 10]
IC50 (human LXRβ): 24 nM | IC50 (hLXRa): 64 nM | EC50 (ABCG1 [1]; Fibroblast): 58 nM | EC50 (ABCG1 [2]): 0.53 nM

Compound: Cc1cnc2c(C(F)(F)F)cccc2c1-c1cccc(OC(=O)c2cccc(S(C)(=O)=O)c2)c1 [Example 11]
IC50 (human LXRβ): 3.5 nM | IC50 (hLXRa): 13.3 nM | EC50 (ABCG1 [1]; Fibroblast): 105 nM | EC50 (ABCG1 [2]): 73 nM

Compound: Cc1ccc(S(C)(=O)=O)cc1C(=O)Oc1cccc(-c2c(C(C)C)cnc3c(C(F)(F)F)cccc23)c1 [Example 7, 3-[3-isopropyl-8-(trifluoromethyl)quinolin-4-yl]phenyl-2-methyl-5-(methylsulfonyl)benzoate]
IC50 (human LXRβ): 3 nM | IC50 (hLXRa): 9.2 nM | EC50 (ABCG1 [1]; Fibroblast): 23 nM | EC50 (ABCG1 [2]): 3.34 nM

Compound: Cc1ccc(S(=O)(=O)N(C)C)cc1C(=O)Oc1cccc(-c2c(C(C)C)cnc3c(Cl)cccc23)c1 [Example 5]
IC50 (human LXRβ): 25 nM | IC50 (hLXRa): 53 nM | EC50 (ABCG1 [1]; Fibroblast): 50 nM | EC50 (ABCG1 [2]): 1.62 nM

Compound: CC(C)c1cnc2c(C(F)(F)F)cccc2c1-c1cccc(OC(=O)c2cccc(S(C)(=O)=O)c2)c1 [Example 15, 3-[3-isopropyl-8-(trifluoromethyl)quinolin-4-yl]phenyl 3-(methylsulfonyl)benzoate]
IC50 (human LXRβ): 1.7 nM | IC50 (hLXRa): 3.5 nM | EC50 (ABCG1 [1]; Fibroblast): 41 nM | EC50 (ABCG1 [2]): 5.2 nM

Compound: CC(C)c1cnc2c(C(F)(F)F)cccc2c1-c1cccc(OC(=O)c2ccccc2S(C)(=O)=O)c1 [Example 9, 3-[3-isopropyl-8-(trifluoromethyl)quinolin-4-yl]phenyl 2-(methylsulfonyl)benzoate]
IC50 (human LXRβ): 112 nM | IC50 (hLXRa): 256 nM

Compound: CC(C)c1cnc2c(Cl)cccc2c1-c1cccc(OC(=O)c2ccccc2S(C)(=O)=O)c1 [Example 4, 3-(8-chloro-3-isopropylquinolin-4-yl)phenyl 2-(methylsulfonyl)benzoate]
IC50 (human LXRβ): > 1000 nM | IC50 (hLXRa): > 1000 nM

Compound: CC(C)c1cnc2c(C(F)(F)F)cccc2c1-c1cccc(OC(=O)c2cc(S(C)(=O)=O)ccc2Cl)c1 [Example 14, 3-[3-isopropyl-8-(trifluoromethyl)quinolin-4-yl]phenyl-2-chloro-5-(methylsulfonyl)benzoate]
IC50 (human LXRβ): 4.1 nM | IC50 (hLXRa): 17 nM

Compound: Cc1cnc2c(C(F)(F)F)cccc2c1-c1cccc(C(=O)Oc2cccc(S(C)(=O)=O)c2)c1 [Example 12]
IC50 (human LXRβ): 154 nM | IC50 (hLXRa): 544 nM

Compound: CC(C)c1cnc2c(Cl)cccc2c1-c1cccc(OC(=O)c2cc(S(C)(=O)=O)ccc2Cl)c1 [Example 13, 3-(8-chloro-3-isopropylquinolin-4-yl)phenyl 2-chloro-5-(methylsulfonyl)benzoate]
IC50 (human LXRβ): 3.4 nM | IC50 (hLXRa): 9 nM

More lines, main results first:

IC50 (human LXRβ): 4.2 nM | IC50 (hLXRa): 9.2 nM | EC50 (ABCG1 [2]): 0.4 nM
Compound: CNS(=O)(=O)c1cccc(C(=O)Oc2cccc(-c3c(C(C)C)cnc4c(Cl)cccc34)c2)c1 [Example 36, 3-(8-chloro-3-isopropylquinolin-4-yl)phenyl 3-(methylsulfamoyl)benzoate]
EC50 (ABCG1 [1]; Fibroblast): 8 nM

IC50 (human LXRβ): 2.2 nM | IC50 (hLXRa): 4 nM | EC50 (ABCG1 [2]): 12.5 nM
Compound: CCc1cnc2c(C(F)(F)F)cccc2c1-c1cccc(OC(=O)c2cccc(S(C)(=O)=O)c2)c1 [Example 19, 3-[3-ethyl-8-(trifluoromethyl)quinolin-4-yl]phenyl 3-(methylsulfonyl)benzoate]
EC50 (ABCG1 [1]; Fibroblast): 36 nM

IC50 (human LXRβ): 4.7 nM | IC50 (hLXRa): 15 nM | EC50 (ABCG1 [2]): 8.3 nM
Compound: CC(C)c1cnc2c(Cl)cccc2c1-c1cccc(OC(=O)c2cccc(S(=O)(=O)N(C)C)c2)c1 [Example 33, 3-(8-chloro-3-isopropylauinolin-4-yl)phenyl 3-(dimethylsulfamoyl)benzoate]
EC50 (ABCG1 [1]; Fibroblast): 55 nM

IC50 (human LXRβ): 235 nM | IC50 (hLXRa): 445 nM | EC50 (ABCG1 [2]): 137 nM
Compound: Cc1ccc(S(=O)(=O)N(C)C)cc1C(=O)Oc1cccc(-c2c(C)cnc3c(C(F)(F)F)cccc23)c1 [Example 30, 3-[3-methyl-8-(trifluoromethyl)quinolin-4-yl]phenyl 5-(dimethylsulfamoyl)-2-methylbenzoate]
EC50 (ABCG1 [1]; Fibroblast): 162 nM

IC50 (human LXRβ): 14 nM | IC50 (hLXRa): 58 nM | EC50 (ABCG1 [2]): 42 nM
Compound: Cc1cnc2c(C(F)(F)F)cccc2c1-c1cccc(OC(=O)c2cccc(S(=O)(=O)N(C)C)c2)c1 [Example 25, 3-[3-methyl-8-(trifluoromethyl)quinolin-4-yl]phenyl 3-(dimethylsulfamoyl)benzoate]
EC50 (ABCG1 [1]; Fibroblast): 250 nM

IC50 (human LXRβ): 506 nM | IC50 (hLXRa): 664 nM | EC50 (ABCG1 [2]): 0.62 nM
Compound: Cc1ccc(S(=O)(=O)N2CCOCC2)cc1C(=O)Oc1cccc(-c2c(C(C)C)cnc3c(Cl)cccc23)c1 [Example 38, 3-(8-chloro-3-isopropylquinolin-4-yl)phenyl 2-methyl-5-(morpholin-4-ylsulfonyl)benzoate]
EC50 (ABCG1 [1]; Fibroblast): 44 nM

IC50 (human LXRβ): 2.3 nM | IC50 (hLXRa): 3.9 nM | EC50 (ABCG1 [2]): 9.15 nM
Compound: CS(=O)(=O)c1cccc(C(=O)Oc2cccc(-c3c(-c4ccccc4)cnc4c(C(F)(F)F)cccc34)c2)c1 [Example 22, 3-[3-phenyl-8-(trifluoromethyl)quinolin-4-yl]phenyl 3-(methylsulfonyl)benzoate]
EC50 (ABCG1 [1]; Fibroblast): 9.9 nM

IC50 (human LXRβ): 64 nM | IC50 (hLXRa): 188 nM | EC50 (ABCG1 [2]): 1.38 nM
Compound: CC(C)c1cnc2c(Cl)cccc2c1-c1cccc(OC(=O)c2ccc(S(=O)(=O)N(C)C)cc2)c1 [Example 34, 3-(8-chloro-3-isopropylquinolin-4-yl)phenyl 4-(dimethylsulfamoyl)benzoate]
EC50 (ABCG1 [1]; Fibroblast): 78 nM

IC50 (human LXRβ): 2.2 nM | IC50 (hLXRa): 4.4 nM
Compound: CC(C)c1cnc2c(Cl)cccc2c1-c1cccc(OC(=O)c2cccc(S(C)(=O)=O)c2)c1 [Example 16, 3-[8-chloro-3-(1-methylethyl)quinolin-4-yl]phenyl 3-(methylsulfonyl)benzoate]

IC50 (human LXRβ): 35 nM | IC50 (hLXRa): 140 nM | EC50 (ABCG1 [2]): 99 nM
Compound: Cc1ccc(S(C)(=O)=O)cc1C(=O)Oc1cccc(-c2c(C)cnc3c(C(F)(F)F)cccc23)c1 [Example 27, 3-[3-methyl-8-(trifluormethyl)quinolin-4-yl]phenyl 2-methyl-5-(methylsulfonyl)benzoate]
EC50 (ABCG1 [1]): 25 nM

IC50 (human LXRβ): 13.8 nM | IC50 (hLXRa): 122 nM
Compound: CS(=O)(=O)c1cccc(C(=O)Oc2ccc(Cl)c(-c3ccnc4c(C(F)(F)F)cccc34)c2)c1 [Example 18, 4-chloro-3-[8-(trifluoromethyl)quinolin-4-yl]phenyl-3-(methylsulfonyl)benzoate]

IC50 (human LXRβ): 33 nM | IC50 (hLXRa): 90 nM
Compound: CS(=O)(=O)c1cccc(C(=O)Oc2cccc(-c3c(C#N)cnc4c(C(F)(F)F)cccc34)c2)c1 [Example 24, 3-[3-cyano-8-(trifluoromethyl)quinolin-4-yl]phenyl 3-(methylsulfonyl)benzoate]

IC50 (human LXRβ): 3.7 nM | IC50 (hLXRa): 17 nM
Compound: Cc1cnc2c(Cl)cccc2c1-c1cccc(OC(=O)c2cccc(S(C)(=O)=O)c2)c1 [Example 17, 3-(8-chloro-3-methylquinolin-4-yl)phenyl 3-(methylsulfonyl) benzoate]
